LC50 and GI50 data for four compounds are collected here from ChEMBL document CHEMBL1158814, “Lehualides A-D, metabolites from a Hawaiian sponge of the genus Plakortis” (J Nat Prod, 2005).

The nature of data set [1]: Toxicity against brine shrimp. Format: organism-based. The note with it: artemia, in vivo; read-out: LD50 (the source's name).
Data set [2] can be described thus: Cytotoxicity against human IGROV-ET cells. Format: functional.
Data set [3] has as its system K562. Put plainly: Cytotoxicity against human K562 cells. Type of data set: functional.

≈ marks a conversion by molar mass, not a printed value.

Regarding `COc1c(O)c(C)c(C/C=C(\C)CC/C=C(/C)C/C(C)=C/Cc2ccccc2)oc1=O` [LEHUALIDE A], the LC50 in data set [1] came to 50 µg/mL (≈ 118 µM). Turning to `COc1oc(C/C=C(\C)CC/C=C(/C)C/C(C)=C/Cc2ccccc2)c(C)c(=O)c1OC` [LEHUALIDE B], in data set [1], the LC50 came to 15 µg/mL (≈ 34.4 µM). In data set [2], it took 830 nM to inhibit growth by half (GI50). As to `COc1oc(C/C=C(\C)CCCCCCCCCSC(C)=O)c(C)c(=O)c1OC` [LEHUALIDE C], the LC50 in data set [1] was found to be 15 µg/mL (≈ 35.3 µM). As for `COc1oc(C/C=C(\C)CCCCCCCCCS)c(C)c(=O)c1OC` [LEHUALIDE D], the LC50 in data set [1] was determined as 15 µg/mL (≈ 39.2 µM). Besides, the 50% growth inhibitory concentration (GI50) in data set [2] was 730 nM; in data set [3] it was 230 nM.
